This note sets out measurements from PMC3639963, “A New Class of Small Molecule Inhibitor of BMP Signaling” (PLoS ONE, 2013).

Holding throughout (test): Nanosyn kinase profiling
Common to all, as to assay type: biochemical
Conditions in all cases: read-out: Percentage inhibition; for inhibition at 0.1 µM: 0.1 µM inhibitor; for inhibition at 1 µM: 1 µM inhibitor

For test [1], the target named is T1, AURKC (Homo sapiens, UniProt Q9UQB9).
T1 construct: purchased Nanosyn (enzymatic panel); SGC in-house recombinant human kinases (DSF panel); Invitrogen (ALK1-6)
T1 sequence (Q9UQB9 1-309): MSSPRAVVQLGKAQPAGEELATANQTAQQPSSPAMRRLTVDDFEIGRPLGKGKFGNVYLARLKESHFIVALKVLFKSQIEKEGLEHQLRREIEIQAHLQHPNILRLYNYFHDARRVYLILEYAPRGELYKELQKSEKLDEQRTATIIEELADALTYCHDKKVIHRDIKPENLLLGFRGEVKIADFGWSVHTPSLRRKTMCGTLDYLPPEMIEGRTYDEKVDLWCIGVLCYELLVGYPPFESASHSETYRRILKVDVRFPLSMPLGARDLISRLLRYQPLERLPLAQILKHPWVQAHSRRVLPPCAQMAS
The essentials:
(§1)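 Percent inhibition of each kinase was measured with the inhibitor at 0.1 µM and at 1 µM, as part of a 200-kinase human selectivity panel.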

Test [2] has as its target T2, CDK5/p35 (Homo sapiens, UniProt Q00535).
T2 construct: purchased Nanosyn (enzymatic panel); SGC in-house recombinant human kinases (DSF panel); Invitrogen (ALK1-6)
The essentials:
as §1

Test [3] addresses T3, CK1α (Homo sapiens, UniProt P48729).
T3 construct: purchased Nanosyn (enzymatic panel); SGC in-house recombinant human kinases (DSF panel); Invitrogen (ALK1-6)
An outline of the steps: as §1

The target in test [4] is T4, EPHB2 (Homo sapiens, UniProt P29323).
T4 construct: purchased Nanosyn (enzymatic panel); SGC in-house recombinant human kinases (DSF panel); Invitrogen (ALK1-6)
T4 sequence (P29323 19-1055): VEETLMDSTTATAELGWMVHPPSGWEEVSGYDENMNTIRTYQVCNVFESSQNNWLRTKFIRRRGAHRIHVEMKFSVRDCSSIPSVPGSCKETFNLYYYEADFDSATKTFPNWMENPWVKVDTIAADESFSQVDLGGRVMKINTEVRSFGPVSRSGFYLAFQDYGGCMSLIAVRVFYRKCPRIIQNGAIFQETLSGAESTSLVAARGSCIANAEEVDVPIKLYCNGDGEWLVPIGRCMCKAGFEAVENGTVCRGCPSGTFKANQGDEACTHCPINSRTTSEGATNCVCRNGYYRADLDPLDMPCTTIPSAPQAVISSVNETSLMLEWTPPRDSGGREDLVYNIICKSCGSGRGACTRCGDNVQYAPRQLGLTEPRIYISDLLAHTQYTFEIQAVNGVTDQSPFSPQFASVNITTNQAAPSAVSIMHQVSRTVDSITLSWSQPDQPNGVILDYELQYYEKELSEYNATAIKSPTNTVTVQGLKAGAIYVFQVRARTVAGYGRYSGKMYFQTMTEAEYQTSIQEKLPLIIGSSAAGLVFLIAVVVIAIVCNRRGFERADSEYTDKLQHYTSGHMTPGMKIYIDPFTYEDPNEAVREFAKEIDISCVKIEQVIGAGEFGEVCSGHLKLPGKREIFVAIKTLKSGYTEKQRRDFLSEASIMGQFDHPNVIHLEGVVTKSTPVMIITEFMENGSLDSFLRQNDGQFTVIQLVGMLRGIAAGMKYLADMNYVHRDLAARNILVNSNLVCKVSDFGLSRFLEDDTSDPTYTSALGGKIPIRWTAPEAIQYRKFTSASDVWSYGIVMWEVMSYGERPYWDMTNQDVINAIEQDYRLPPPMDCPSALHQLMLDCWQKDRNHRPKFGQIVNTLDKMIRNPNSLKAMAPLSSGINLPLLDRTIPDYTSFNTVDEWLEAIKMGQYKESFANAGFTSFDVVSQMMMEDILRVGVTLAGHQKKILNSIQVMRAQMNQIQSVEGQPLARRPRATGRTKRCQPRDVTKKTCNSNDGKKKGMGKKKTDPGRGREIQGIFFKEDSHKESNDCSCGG
An outline of the steps:
as §1

Test [5] addresses T5, JNK2 (Homo sapiens, UniProt P45984).
T5 construct: purchased Nanosyn (enzymatic panel); SGC in-house recombinant human kinases (DSF panel); Invitrogen (ALK1-6)
An outline of the steps: as §1

Test [6] concerns the target T6, PAK5 (Homo sapiens, UniProt Q9P286).
T6 construct: purchased Nanosyn (enzymatic panel); SGC in-house recombinant human kinases (DSF panel); Invitrogen (ALK1-6)
An outline of the steps: as §1

Test [7] deals with T7, PLK1 (Homo sapiens, UniProt P53350).
T7 construct: purchased Nanosyn (enzymatic panel); SGC in-house recombinant human kinases (DSF panel); Invitrogen (ALK1-6)
T7 sequence (P53350 whole entry): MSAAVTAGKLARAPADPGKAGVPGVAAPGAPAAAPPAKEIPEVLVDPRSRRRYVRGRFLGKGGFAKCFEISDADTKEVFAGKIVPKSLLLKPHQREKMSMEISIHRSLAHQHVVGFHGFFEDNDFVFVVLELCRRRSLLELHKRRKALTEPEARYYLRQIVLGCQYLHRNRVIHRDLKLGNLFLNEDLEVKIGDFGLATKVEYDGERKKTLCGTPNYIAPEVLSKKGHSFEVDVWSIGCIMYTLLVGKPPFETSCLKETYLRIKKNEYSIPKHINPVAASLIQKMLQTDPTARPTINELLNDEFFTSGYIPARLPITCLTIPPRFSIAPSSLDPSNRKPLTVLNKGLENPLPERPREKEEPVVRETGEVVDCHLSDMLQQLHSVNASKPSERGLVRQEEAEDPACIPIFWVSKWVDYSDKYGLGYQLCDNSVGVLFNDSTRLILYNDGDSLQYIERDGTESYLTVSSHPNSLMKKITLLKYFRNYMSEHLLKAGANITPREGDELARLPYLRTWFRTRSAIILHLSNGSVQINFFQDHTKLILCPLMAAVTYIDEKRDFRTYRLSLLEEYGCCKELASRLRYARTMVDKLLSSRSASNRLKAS
The essentials: as §1

Test [8] has as its target T8, SGK3 (Homo sapiens, UniProt Q96BR1).
T8 construct: purchased Nanosyn (enzymatic panel); SGC in-house recombinant human kinases (DSF panel); Invitrogen (ALK1-6)
T8 sequence (Q96BR1 1-496): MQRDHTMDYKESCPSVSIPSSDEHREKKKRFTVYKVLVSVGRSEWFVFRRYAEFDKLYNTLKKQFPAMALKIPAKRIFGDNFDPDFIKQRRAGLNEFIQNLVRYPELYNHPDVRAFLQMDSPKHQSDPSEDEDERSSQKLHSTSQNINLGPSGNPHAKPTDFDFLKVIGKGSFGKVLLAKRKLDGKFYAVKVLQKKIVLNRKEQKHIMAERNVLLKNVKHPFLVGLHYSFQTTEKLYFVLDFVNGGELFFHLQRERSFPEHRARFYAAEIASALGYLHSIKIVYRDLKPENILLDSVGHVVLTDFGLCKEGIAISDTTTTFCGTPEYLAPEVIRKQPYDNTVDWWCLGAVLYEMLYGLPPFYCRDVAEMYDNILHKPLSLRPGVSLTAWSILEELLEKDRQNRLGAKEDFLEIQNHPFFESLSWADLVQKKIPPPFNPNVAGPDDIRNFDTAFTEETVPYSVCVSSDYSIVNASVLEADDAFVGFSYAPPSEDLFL
An outline of the steps:
as §1

The target of test [9] is T9, TSSK1 (Homo sapiens, UniProt Q9BXA7).
T9 construct: purchased Nanosyn (enzymatic panel); SGC in-house recombinant human kinases (DSF panel); Invitrogen (ALK1-6)
T9 sequence (Q9BXA7 1-367): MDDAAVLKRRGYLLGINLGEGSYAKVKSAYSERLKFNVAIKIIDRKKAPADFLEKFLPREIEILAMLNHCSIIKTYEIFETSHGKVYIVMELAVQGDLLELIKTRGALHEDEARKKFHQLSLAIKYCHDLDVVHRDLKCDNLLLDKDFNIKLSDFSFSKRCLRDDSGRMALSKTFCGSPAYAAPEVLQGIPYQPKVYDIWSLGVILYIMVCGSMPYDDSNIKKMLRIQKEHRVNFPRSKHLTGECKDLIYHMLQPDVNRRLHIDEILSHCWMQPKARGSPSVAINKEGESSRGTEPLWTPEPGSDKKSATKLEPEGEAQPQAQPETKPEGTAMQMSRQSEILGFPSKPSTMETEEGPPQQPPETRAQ
An outline of the steps:
as §1

Usually inhibition stands for the drop in the measured response relative to a control, in per cent.

T3 sequence (P48729 whole entry): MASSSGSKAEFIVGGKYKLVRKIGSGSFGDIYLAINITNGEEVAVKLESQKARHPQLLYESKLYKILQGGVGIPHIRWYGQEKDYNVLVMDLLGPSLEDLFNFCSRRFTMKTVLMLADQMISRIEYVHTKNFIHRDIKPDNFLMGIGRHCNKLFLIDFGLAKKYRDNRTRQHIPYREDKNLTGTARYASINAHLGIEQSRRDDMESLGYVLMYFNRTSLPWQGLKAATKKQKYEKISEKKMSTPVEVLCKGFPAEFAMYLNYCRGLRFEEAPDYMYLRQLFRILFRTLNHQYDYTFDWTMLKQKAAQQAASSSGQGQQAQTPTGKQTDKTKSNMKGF
T5 sequence (P45984 whole entry): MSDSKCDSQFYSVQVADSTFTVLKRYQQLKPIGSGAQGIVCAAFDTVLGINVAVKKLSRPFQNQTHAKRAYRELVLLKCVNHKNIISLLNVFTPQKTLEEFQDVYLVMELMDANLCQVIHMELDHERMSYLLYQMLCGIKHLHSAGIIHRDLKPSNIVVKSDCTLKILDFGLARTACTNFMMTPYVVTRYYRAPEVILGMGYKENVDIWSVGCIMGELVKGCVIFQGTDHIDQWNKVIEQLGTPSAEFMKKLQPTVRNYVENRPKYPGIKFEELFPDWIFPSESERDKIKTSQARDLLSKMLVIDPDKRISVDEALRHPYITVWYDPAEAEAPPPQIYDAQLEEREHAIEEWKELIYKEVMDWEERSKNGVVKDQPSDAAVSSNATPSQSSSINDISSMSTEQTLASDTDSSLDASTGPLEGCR
T2 sequence (Q00535 whole entry): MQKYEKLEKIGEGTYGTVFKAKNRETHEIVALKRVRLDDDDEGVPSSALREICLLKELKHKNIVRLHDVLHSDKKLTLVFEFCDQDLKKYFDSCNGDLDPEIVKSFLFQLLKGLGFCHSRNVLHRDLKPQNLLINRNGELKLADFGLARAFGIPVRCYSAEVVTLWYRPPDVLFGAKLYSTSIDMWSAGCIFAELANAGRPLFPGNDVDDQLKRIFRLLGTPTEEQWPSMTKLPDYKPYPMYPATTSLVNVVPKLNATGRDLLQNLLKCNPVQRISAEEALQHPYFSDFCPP
T2 sequence (Q15078 whole entry partner): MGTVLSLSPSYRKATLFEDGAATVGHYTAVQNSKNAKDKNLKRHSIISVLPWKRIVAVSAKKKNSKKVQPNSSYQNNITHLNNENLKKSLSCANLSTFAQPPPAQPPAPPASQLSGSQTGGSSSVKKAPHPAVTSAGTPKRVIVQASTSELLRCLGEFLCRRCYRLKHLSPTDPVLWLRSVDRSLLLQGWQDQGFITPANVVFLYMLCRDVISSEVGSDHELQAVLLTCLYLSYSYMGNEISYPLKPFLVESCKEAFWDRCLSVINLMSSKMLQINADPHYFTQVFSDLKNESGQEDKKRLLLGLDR
T6 sequence (Q9P286 whole entry): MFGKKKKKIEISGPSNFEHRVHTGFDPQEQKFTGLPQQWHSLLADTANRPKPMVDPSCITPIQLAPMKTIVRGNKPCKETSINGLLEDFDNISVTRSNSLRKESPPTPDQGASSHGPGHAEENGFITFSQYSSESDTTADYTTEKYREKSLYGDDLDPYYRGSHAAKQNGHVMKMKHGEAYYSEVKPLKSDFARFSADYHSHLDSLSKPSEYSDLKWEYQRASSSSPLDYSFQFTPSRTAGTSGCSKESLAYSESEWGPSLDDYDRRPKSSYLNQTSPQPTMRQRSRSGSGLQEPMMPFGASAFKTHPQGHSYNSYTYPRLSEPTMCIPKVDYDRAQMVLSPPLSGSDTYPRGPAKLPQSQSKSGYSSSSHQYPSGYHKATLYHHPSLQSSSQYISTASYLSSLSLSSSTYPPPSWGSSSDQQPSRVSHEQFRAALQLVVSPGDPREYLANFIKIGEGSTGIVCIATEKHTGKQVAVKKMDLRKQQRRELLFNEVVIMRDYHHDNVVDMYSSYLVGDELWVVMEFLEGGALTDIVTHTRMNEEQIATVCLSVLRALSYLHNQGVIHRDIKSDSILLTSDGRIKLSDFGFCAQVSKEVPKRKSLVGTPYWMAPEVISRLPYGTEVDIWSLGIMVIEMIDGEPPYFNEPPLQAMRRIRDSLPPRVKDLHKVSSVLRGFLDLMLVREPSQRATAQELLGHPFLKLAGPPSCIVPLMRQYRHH

In the case of `COc1cc(-c2cc(-c3cccc(O)c3)cnc2N)cc(OC)c1OC` [K02288, 3-[6-amino-5-(3,4,5-trimethoxy-phenyl)-pyridin-3-yl]-phenol], the inhibition at 0.1 µM in test [1] was -1%; in test [2], 0.3%; in [3] it was 0%; in test [4], 0%; in test [5], 0.9%; in [6], -1%. Moreover, the figures for the inhibition at 0.1 µM in [7], in test [8] and in test [9] were -2%, -2% and -1%, respectively. The inhibition at 1 µM in test [1] was 3.2%; in test [2], 1.9%; in test [3], 7.2%; in test [4], 21%; in test [5] it was 0%; in test [6], -1%. Also, the inhibition at 1 µM in [7] is -2%; in test [8], -1%; in [9] it was -2%.
For the molecule `c1ccc2c(-c3cnn4cc(-c5ccc(N6CCNCC6)cc5)cnc34)ccnc2c1` [LDN-193189], the inhibition at 0.1 µM amounted to 4.2% in [1]; 1.4% in test [2]; 14% in test [3]; 8.4% in test [4]; 3.9% in test [5]; 6.2% in [6]. For the same molecule, the inhibition at 0.1 µM is 0.8% in [7], 1.6% in [8] and 3.5% in test [9]. Further, the inhibition at 1 µM in test [1] came out at 25%; in test [2] it was 8.5%; in test [3] it was 56%; in test [4], 24%; in test [5] it was 1.3%; in test [6], 8.5%. Further, the inhibition at 1 µM in test [7] came to 1.3%; in test [8], 2.3%; in test [9], 5.2%.
